Measured values taken from paper PMC8648872, “A host-directed macrocyclic peptide therapeutic for MDR gram negative bacterial infections” (Scientific Reports, 2021).
Entries after “also recorded” stand apart in the source; their conditions may differ. Where a SMILES comes first, the peptide text is derived from it. Bridges are numbered along the chain shown (N, C = ends).

Columns and labels:
[1] = system: CRE and non-CRE strains of K. pneumoniae and E. coli; assay type: cell-based; conditions: standard CLSI assay conditions
Description: Bacterial strains were obtained from American Type Culture Collection. K. pneumoniae strains included BAA-1705 (blaKPC-2, hypermucoid), BAA-2146 (blaNDM-1), BAA-700603 (SHV-18, extended spectrum β-lactamase, ESBL), and BAA-1706 (non-CRE reference strain). E. coli strains included BAA-2340 (blaKPC-2), BAA-2471 (blaNDM-1), and ML35 (non-CRE reference strain).
Minimum inhibitory concentration (MIC) assays were performed ± 50% heat-inactivated mouse serum using Clinical and Laboratory Standards Institute (CLSI; document M07-A9) protocols. Bacteria (5 × 10^5 CFU/ml) were incubated with antibiotics or peptide for 20 h at 37 °C, and bacterial growth was determined by A620 using a SpectraMax M5e plate reader.

Kp-1705 = experiment: Antibacterial activity of peptide-containing peritoneal fluid; assay type: cell-based, K. pneumoniae; conditions: Kp-1705 incubated in PF containing 7.5 µg/ml peptide, 1 h, 37 °C, CFU plating
Description: Cryopreserved Kp-1705 was suspended in PBS to a density of ca. 1 × 10^9 CFU/ml, and incubated with saline or 1.25 µg/ml MTD12813 at room temperature for 1 h. Mice (n = 26) were then infected i.p. with 500 µl of saline- or MTD12813- pretreated Kp-1705, and a third cohort (n = 12) received 500 µl i.p. of 1.25 µg/ml MTD12813 immediately following infection with saline treated Kp-1705. Five mice from each cohort were euthanized 4 h p.i., and peritoneal lavage was collected for bacterial burden determination and cytospin preparation. In vitro antibacterial activity of MTD12813 (1.25 μg/ml) -treated cells (1 h; 37 °C) was determined by plating saline or peptide treated cells on TSA plates. Growth kinetics of saline and MTD12813-treated cells was determined by diluting samples from the 1 h incubation mixtures 1:40 into TSB and monitoring growth (620 nm) for 5.5 h at 37 °C. Antibacterial activity of MTD12813 in PF was determined by i.p. injection of naïve male BALB/c mice (n = 5 per group) with 1.25 mg/kg of MTD12813 or saline i.p. (10 ml/kg). […] Peritoneal fluid was clarified by centrifugation at 1200×g and an aliquot used to quantify MTD12813 by LC–MS/MS, as described above. Antimicrobial activity was determined by incubating PF (9:1 vol/vol) with Kp-1705 at a final density of 3 × 10^7 CFU/ml. […]

plasma cytokines = experiment: Plasma multiplex cytokine analysis in Kp-1705 sepsis; assay type: in vivo, BALB/c mice; conditions: 1.25 mg/kg i.p. 1 h p.i.
Description: EDTA-anticoagulated blood was collected aseptically by terminal cardiac puncture and analyzed for complete blood cell count using an Element HT5 hematology analyzer (Heska). Blood plasma and clarified peritoneal lavage were prepared by two-step centrifugation described previously. Plasma cytokine levels were quantified using a mouse-specific MILLIPLEX MAP kit (Millipore Cat# MCYTMAG-70K) as described.
Supplemental Table 1. Mice were challenged i.p. with Kp-1705 and treated 1 h later with MTD12813 (1.25 mg/kg i.p.) or saline. The sham cohort received bacteria-free suspension buffer at t=0 followed by saline 1 h later. Mice were euthanized 2, 4, or 24 h p.i., and plasma samples were subjected to multiplex cytokine analysis. P values calculated using ANOVA with Uncorrected Fisher’s LSD comparing saline and MTD12813 treated mice at respective time points.

RAW 264.7 macrophages = experiment: TNF release by LPS-stimulated RAW 264.7 cells; assay type: cell-based, mouse; conditions: RAW 264.7, 5 ng/ml LPS, 2 h, ELISA
Description: Mouse RAW 264.7 macrophages (RAW cells; ATCC, TIB-71) were grown in Dulbecco’s Modified Eagle Medium (DMEM) with 10% heat-inactivated fetal bovine serum (HI-FBS) with 100 U/ml penicillin/streptomycin, and suspended to 2–3 × 10^6 cells/ml in fresh media before use.
RAW cells were seeded into 48-well tissue culture plates at 1–1.5 × 10^5 cells/well and allowed to adhere overnight. Cells were washed twice and suspended in DMEM with 1% FBS with 0–5 µg/ml of MTD12813 immediately followed by addition of 5 ng/ml (25 EU/ml) of E. coli 0111:B4 LPS (Sigma L4391). Plates were incubated for 2 h at 37 °C in 5% CO2. Well contents were removed, clarified by centrifugation, and supernatants frozen at − 80 °C. Supernatant TNF was quantified by mouse TNF ELISA (Invitrogen, Cat #BMS607-3).

[2] = Peptide stability with log-phase E. coli ATCC-BAA-2340 (bacterial proteases); assay type: in vitro ADME; conditions: suspension of log-phase E. coli ATCC-BAA-2340 bacteria, log-phase E. coli ATCC-BAA-2340, 50 mM HEPES, 37 °C, LC–MS/MS, read-out: MTD12813 found intact
Description: MTD12813 (final concentration of 100 µg/ml) was added to either 90% human EDTA plasma or 90% human serum and incubated at 37 °C for 48 h. Samples were processed by addition of 10% HOAc and 5% ACN (final concentrations) at time 0 and 48 h, and MTD12813 was quantified by C18 RP-HLPC on an Acquity H-Class UPLC with an analytical PDA detector using Empower 3 software (Waters). All samples were performed with technical replicates and analyzed by UPLC in duplicate and the experiment repeated once. […] A time 0 h sample was collected, and the remaining suspension incubated at 37 °C for 24 h. Samples were processed by addition of 5% formic acid/5% acetonitrile, vortexed, and clarified at 22,000×g for 10 min. Supernatant MTD12813 was then quantified by LC–MS/MS as described in PK section above. All samples were performed with technical replicates and analyzed by LC–MS/MS in duplicate.

CC[C@H](C)[C@@H]1NC(=O)[C@@H]2CSSC[C@H](NC(=O)[C@H]([C@@H](C)CC)NC(=O)[C@@H]3CSSC[C@H](NC1=O)C(=O)N[C@@H](C(C)C)C(=O)NCC(=O)N[C@@H](CCCNC(=N)N)C(=O)NCC(=O)N3)C(=O)N[C@@H](C(C)C)C(=O)N[C@@H](CCCNC(=N)N)C(=O)N[C@@H](CCCNC(=N)N)C(=O)N[C@@H](CCCNC(=N)N)C(=O)N2 [MTD12813] (cyclo(CICVGRGCICVRRR); disulfide 1-10, 3-8)
MIC against all seven organisms of the panel [1]: 3.13 to 6.25 µg/mL
bacterial killing in peritoneal fluid containing peptide (Kp-1705): no bacterial killing was observed; also recorded: no bactericidal activity
plasma CCL4 and CXCL2 (plasma cytokines; 2 h p.i.): statistically significant reductions
plasma IL-9 and IL-15 levels (plasma cytokines; 4 h p.i.): significant increases
plasma TNF, IL-6 and CXCL1 (KC) (plasma cytokines; 4 h p.i.): significantly reduced
change of plasma TNF versus saline (plasma cytokines; 24 h p.i.): -89.8%
concentration for 50% TNF suppression relative to RTD-1 (RAW 264.7 macrophages): ca. fourfold lower concentration than RTD-1
remaining at 24 h, 1.25 µg/ml [2]: 81.3 ± 2.1%
